Legend:
[1] = system: differentiated Caco-2 cells (AP membrane peptidases); experiment: Metabolites of P5 produced by Caco-2 cell peptidases, MS analysis of AP solutions; format: in vitro ADME, human; design: key to Metabolite of P5 identified in the AP compartment: Mixture / Metabolite of P5 identified in the AP compartment: Alone: x, detected; n.d., not detected
Method: Prior to experiments, the cell monolayer integrity and differentiation were checked by TEER measurement as described in detail above. Peptide trans-epithelial passage was assayed in differentiated Caco-2 cells in transport buffer solution (137 mM NaCl, 5.36 mM KCl, 1.26 mM CaCl2, and 1.1 mM MgCl2, 5.5 mM glucose) according to previously described conditions. In order to reproduce the pH conditions existing in vivo in the small intestinal mucosa, the apical (AP) solutions were maintained at pH 6.0 (buffered with 10 mM morpholinoethane sulfonic acid), and the basolateral (BL)solutions were maintained at pH 7.4 (buffered with 10 mM […]). Prior to transport experiments, cells were washed twice with 500 µL PBS containing Ca^++ and Mg^++. Peptide transportation by mature Caco-2 cells was assayed by loading the AP compartment with P5 alone, in mixture with […] (P3) and […] (P7), and/or P5-met (500 μM) in the AP transport solution (500 µL) and the BL compartment with the BL transport solution (700 µL). The plates were incubated at 37 °C and the BL solutions were collected at different time points (i.e., 15, 30, 60, 90, and 120 min) and replaced with fresh solutions pre-warmed at 37 °C. All BL and AP solutions collected at the end of the transport experiment were stored at −80 °C prior to analysis. Three independent transport experiments were performed, each in duplicate. In order to assess the involvement of transcytotic process in peptides passage, parallel transport experiments were performed in the presence of 500 nM wortmannin in both the AP and BL compartment, over 60 min incubation time.
The medium collected at the end of transport experiments from AP and BL chambers (500 µL and 700 µL, respectively) were freeze-dried and residues were solubilized in HPLC water (100 µL). Samples were desalted with C18 resin ZipTip by using 80% ACN, 0.1% FA as eluent (Millipore Corporation, Bedford, MA, USA). Each sample was lyophilized under speed-vacuum for 5 h at 30°C and re-dissolved in 50 μL (0.1% formic acid), before MS analysis. Purified BL samples were analyzed on a SL IT mass spectrometer interfaced with a HPLC- Chip Cube source (Agilent Technologies, Palo Alto, CA, USA). Data were processed with MSD Trap control 4.2, and Data analysis 4.2 version (Agilent Technologies, Palo Alto, CA, USA). The chromatographic separation was performed using a 1200 HPLC system equipped with a binary pump. […] Specifically, The monitored MRM transitions of P5-met were from the mono-charged precursor ion [M^+H]^+ (m/z 882.43) to product-ions m/z 678.3 and 407.1, respectively. […]

HNF-1α = experiment: Western blot, HNF-1α protein level in HepG2 cells; format: cell-based, human; settings: HepG2, 50 µM, 24 h, mean ± SD
Method: (§1) The HepG2 cell line was bought from ATCC (HB-8065, ATCC from LGC Standards, Milan, Italy) and was cultured in DMEM high glucose with stable L-glutamine, supplemented with 10% FBS, 100 U/mL penicillin, 100 µg/mL streptomycin (complete growth medium) with incubation at 37 °C under 5% CO2 atmosphere.
(§2) Immunoblotting experiments were performed using optimized protocol. A total of 1.5 × 10^5 HepG2 cells/well (24-well plate) were treated with 50 μM of P5 and P5-met for 24 h. After each treatment, the supernatants were collected and stored at −20°C; cells were scraped in 40 µL ice-cold lysis buffer (RIPA buffer + inhibitor cocktail + 1:100 PMSF + 1:100 Na-orthovanadate + 1:1000 β-mercaptoethanol) and transferred in ice-cold microcentrifuge tubes. […] Total proteins were quantified by the Bradford’s method and 50 μg of total proteins loaded on a pre-cast 7.5% Sodium Dodecyl Sulfate-Polyacrylamide (SDS-PAGE) gel at 130 V for 45 min. […] Target proteins, on milk or BSA blocked membrane, were detected by primary antibodies as follows: anti-SREBP-2, anti-LDLR, anti-HMGCoAR, anti-PCSK9, anti HNF1-α and anti-β-actin. Secondary antibodies conjugated with HRP and a chemiluminescent reagent were used to visualize target proteins and their signal was quantified using the Image Lab Software (Biorad, Hercules, CA, USA). […]

PCSK9 = experiment: Western blot, PCSK9 protein level in HepG2 cells; format: cell-based, human; settings: HepG2, 50 µM, 24 h, mean ± SD
Method: as §1, §2

Substance: H-LPKHSDAD-OH [Peptide P5-met]
- Spectral Intensity of the metabolite in the AP compartment ([1]; Caco-2, AP compartment, end of incubation 120 min, used as measure of metabolite abundance): 1.21 × 10^7
- Metabolite of P5 identified in the AP compartment: Alone ([1]; P5 incubated alone (500 μM), Caco-2, end of incubation 120 min): x
- Metabolite of P5 identified in the AP compartment: Mixture ([1]; P5 incubated in mixture with P3 and P7 (500 μM each), Caco-2, end of incubation 120 min): x
- Decrease of HNF-1α protein (HNF-1α): 10.8 ± 3.5%
- Decrease of PCSK9 protein level (PCSK9): 29 ± 8.1%
